Laboratory results reported in patent US20240228542A1, “LYTIC DOMAIN FUSION CONSTRUCTS, CHECKPOINT INHIBITORS, AND METHODS OF MAKING AND USING SAME” (A28 Therapeutics Inc., priority 2020, published 2024).

How the values were obtained:
2C12 = assay: Cytotoxicity in 2C12 murine ovarian cancer cells (24 h); format: cell-based; settings: 2C12, 24 h; read-out: In vitro activity (IC50)
Method: (§1) Murine ovarian cancer cell lines (ID8, IG10, IF5, and 2Cl2) were grown in RPMI 1640 media with 10% Fetal Bovine Serum. Cells were typically seeded (3000 cells per well) into 96 well plates and media was replaced after 48 hours of incubation. […] Phor18-LHRH was provided in lyophilized form was dissolved in saline and added to cells. The duration of incubation was 24 h at 37° C. Cell viability was assessed after 24 hours using a luminometric assays (Promega, CellTiter-0Glo 2.0, G9243). Controls contained saline or 0.1% triton as reference for 0 and 100% cell death, respectively.
(§2) Data were processed and analyzed using GraphPad Prism version 7.00 for Windows (GraphPad Software, San Diego California). Statistical analysis for significance was determined by a two-tailed Student's T-test. Each study was conducted to achieve an […] of at least 6.
(§3) In vitro activities were expressed as IC50 values for each cell line, time point and compound tested that were calculated using the Hill equation (Graph Pad Prizm software).

LNCaP = assay: Cytotoxicity in LNCaP prostate cancer cells; format: cell-based; settings: LNCaP prostate cancer cell line; read-out: IC50 in Human Cancer Cell Lines
Method: (§4) MDA-MB-435S.luc cells were grown in Leibovitz's L 15 medium, 10% fetal bovine serum, 0.01 mg/ml bovine insulin, 100 IU/ml penicillin, 100 microg/ml streptomycin. The cells were cultured in tight closed flasks. The incubations were conducted using 96 well plates at 10,000 cells per well. Cells were typically seeded into 96 well plates and media was replaced after 48 hours of incubation. Each assay was conducted at increasing concentrations of 0, 0.001, 0.01, 0.05, 0.1, 0.5, 1, 2, 5, 10 and 100 micromolar doses of lytic peptide-binding domain conjugate. Each lytic peptide-binding domain conjugate provided in lyophilized form and was freshly dissolved in saline and added to cells. The duration of incubation was typically 24 h, and cell viability assays were conducted using formazan conversion assays (MTT assay). Controls contained saline or 0.1% triton as reference for 0 and 100% cell death, respectively.
(§5) To ascertain the IC50 of various fusion constructs on different human cancer cell lines compared to cisplatinum, IC50 of fusion constructs were evaluated as in Table 3.

SKOV-3 = assay: Cytotoxicity in SKOV-3 ovarian cancer cells; format: cell-based; settings: SKOV-3 ovarian cancer cell line; read-out: IC50 in Human Cancer Cell Lines
Method: as §4, §5

MDA-MB-231 = assay: Cytotoxicity in MDA-MB-231 breast cancer cells; format: cell-based; settings: MDA-MB-231 breast cancer cell line; read-out: IC50 in Human Cancer Cell Lines
Method: as §4, §5

[1] = test system: MDA-MB-435S.luc xenograft; assay: MDA-MB-435S.luc xenograft, LHRH fusion constructs; format: in vivo, Nu/Nu mice
Method: For LHRH fusion constructs, the mouse xenograft model for breast cancer was used. In brief. Nu/Nu female mice, outbred strain, age 5 weeks (Charles River) were injected subcutaneously with a MDA-MB-435S.luc/Matrigel suspension (1×10^6 cells). Treatment was started on day 21 after tumor cell injection and continued on day 26 and 29. The doses for weekly fusion construct injections were 2, 0.2 and 0.02 mg/kg body weight, given as a bolus single injection. All mice were necropsied 34 days after tumor cell injection-baseline values for tumor weights were obtained by sacrificing 8 mice at treatment start. Primary tumors, liver, kidney, pancreas, heart, lung, and spleen were collected and prepared for histological evaluation in formalin. Tumor weights were recorded at necropsy, part of the tumors were frozen at −80 ° C. for luciferase assay determination.
Characteristics of tumors at necropsy are summarized in FIG. 10; (A) tumor weight, (B) changes of tumor weights compared to baseline, (C) total number of live tumor cells, (D) changes of total live tumor cells compared to baseline, and (E) bodyweights at baseline and necropsy. Viability of tumor cells was determined at the end of the study when tumors were measured for luciferase activity. Treatment efficacy was calculated as difference between measurements at the beginning of treatment compared to the measurement at the end of study (FIG. 10B and 10D).

IG10 = assay: Cytotoxicity in IG10 murine ovarian cancer cells (24 h); format: cell-based; settings: IG10, 24 h; read-out: In vitro activity (IC50)
Method: as §1, §2, §3

immune cells in tumor = assay: Immune cell profiling (FACS) of ID8 tumors; format: in vivo, C57BL/6 mice
Method: Immune Profiling Assay—Immunophenotypic analyses of splenocytes and single cell suspensions from tumors were assessed by flow cytometry. Abs to stain for MDSCs were CD11b-APC (clone M1/70; BD Biosciences), Ly6G-FITC (clone 1A8; BD Biosciences) and Ly6C-PE (clone AL-21; BD Biosciences). For T-cell activation markers, cells were stained with Ab specific for CD4-PE-Cy7 (clone RM4-5; BD Biosciences), CD8-PE-Cy7 (clone 53-6.7; BD Biosciences), CD62L-PE (clone MEL-14; BD Biosciences) and CD44-FITC (clone IM7; Biolegend). Cells were incubated on ice for 30 min, washed and fixed in phosphate buffered saline (PBS) containing 1% formalin for flow cytometric analysis on an LSRII flow cytometer (BD Biosciences).
Immune cell profiling was conducted on ascites (N=3) and tumor tissue (N=3) by processing the samples by the following method and analyzed through Fluorescent Activated Cell Sorting (FACS), see Table 8. Cells were incubated for 30 minutes on ice, washed and fixed in phosphate buffered saline containing 1% formalin for flow cytometric analysis on an LSRII flow cytometer.

## KFAKFAKKFAKFAKKFAKQHWSYGLRPG [Phor18-LHRH]
2C12
  IC50: 1020 nM
LNCaP
  IC50: 1550 ± 80 nM
SKOV-3
  IC50: 11800 ± 300 nM
MDA-MB-231
  IC50: 5500 ± 1200 nM
[1]; 0.02, 0.2 and 2 mg/kg, vs baseline, saline and Phor21-βCG-ala
  treatment efficacy (tumor weight, live tumor cells): Equally effective as Phor21-βCG-ala
[1]; during treatment and after 30 days
  tumor volume: smallest tumor volumes
[1]; mouse, in vivo
  concentrations resulting in tumor weights similar to baseline: 0.2 mg/kg
[1]; tumor weight and live tumor cell reduction vs baseline compared to peptide 33, LHRH construct study
  In vivo Performance compared to 33: 1
IG10
  IC50: 1030 nM
Immune cells in tumor; tumor (tumor and ascites)
  increase of CD8+ T/Treg ratio: 8 fold
Immune cells in tumor; tumor, % of CD45+ cells, controls 1.14±0.09%
  Regulatory T cells (Treg): 0.95±0.15%
Immune cells in tumor; tumor, % of CD45+ cells, controls 1.5±0.006%
  Monocytic myeloid suppressor cells (mMDSC): 1.015±0.15%
Immune cells in tumor; tumor, % of CD45+ cells, controls 1.6±0.05%
  Macrophages: 10.1±0.13%
Immune cells in tumor; tumor, % of CD45+ cells, controls 1.88±0.03%
  Dendritic cells (DC): 5.12±0.34%
Immune cells in tumor; tumor, % of CD45+ cells, controls 2.6±0.4%
  CD8+ T cells: 15.5±0.8%
Immune cells in tumor; tumor, % of CD45+ cells, controls 3.76±[…]
  Natural killer (NK) cells: 10.67±1.4%
Immune cells in tumor; tumor, % of CD45+ cells, controls 12.14±0.9%
  B cells: 10.1±2.4%
Immune cells in tumor; tumor, Mean±SEM, controls 8.16±[…]
  CD45+ cell fraction of live cells: 26.1±5.2%
Immune cells in tumor; tumor, controls 2.27±0.26
  ratio of CD8+ T cells to regulatory T cells: 15.5±2.5
